Data published in patent US20240368226A1, “Cyclic Cell Penetrating Peptides For Treating Neisseria Gonorrhoeae Infections” (priority 2023, published 2024).
Where a SMILES comes first, the peptide text is derived from it. Bridges are numbered along the chain shown (N, C = ends). [ ]: non-standard residue; d: D form. Ahx = NCCCCCC(=O)O

Key:
[1] = system: activated THP-1 monocytic cells; experiment: LDH release cytotoxicity, THP-1; format: cell-based, human; design: cytotoxicity, THP-1: unit of the concentration uncertain; settings: for cytotoxicity, THP-1: 100 (unit uncertain)
Procedure: (§1) To determine whether the CPPs were cytotoxic for human cells, the relative amount of LDH released from immortalized End1/E6E7 endocervical cells, ME 180 cervical cells and THP-1 monocytic cells was measured following 18 h treatment (FIG. 9A-C). […] The cytotoxicity of the endogenous AMP LL-37 was analyzed as a comparator.
(§2) We analyzed the levels of lactate dehydrogenase (LDH) released from dying human End1/E6E7 epithelial endocervical cells1, ME-180 epithelial cervical2, and THP-1 monocytes due to cytotoxicity from exposure to the CPP structural analogs or LL-37 using the Cyquant LDH Cytotoxicity Assay Kit (Invitrogen ThermoFisher Scientific). The THP-1 cells were activated overnight by incubation with 10 ng/ml of phorbol myristate acetate (PMA; Sigma-Aldrich). After washing, cells were trypsinized, and then 1.0×10^4 cells in 100-μL media were plated per well in 96-well plates. For the activated THP-1 and ME-180 cells, Opti-MEM (Gibco) with 1% FBS was used. For the End1/E6E7 cells Keratinocyte-Scrum Free Media (ThermoFisher Scientific) with supplements was used. After plating, the activated THP-1 cells were incubated for 4-5 h and the End1/E6E7 and ME-180-cells were incubated overnight. Next stock solutions of the CPPs or LL-37 were diluted in PBS and aliquots were added to wells to create final concentrations of 100 and 200 μM of the CPPs, or 20 and 40 μM of LL-37 in total volumes of 100 μL per well. Negative control wells were treated with vehicle only, which was 1% DMSO in media. Vehicle controls for LL-37 were wells with Opti-MEM with 1% FBS only. After adding the test reagents, plates were gently mixed and incubated at 37° C. and 5% CO2 for 18 h. Positive control wells were treated with 10 μL of the Triton X-100 Lysis Buffer provided with the Cyquant kit according to the directions of the vendor. Then the levels of LDH in supernatants were quantified using a kit (Roche, Mannheim, DE, USA) with detection on an Epoch (Biotek Instruments, Winooski, Vermont, USA) microtiter plate reader at 490 nm with 680 nm subtracted. The results were reported as the percentage of LDH released from cells treated with LL-37 or CPP relative to LDH released from control cells treated with vehicle-only.

[2] = system: invasion of ME-180 cells by FA1090 1-81-S2 gonococci; experiment: Invasion of human cervical epithelial cells by gonococci; format: cell-based; settings: LL-37 20 μM; moi of 5; 4 h
Procedure: Because the CPP was bactericidal for N. gonorrhoeae and, furthermore, could penetrate the bacteria, it was postulated that treatment may prevent invasion of human epithelial cells. Therefore, the effect of the CPP on the invasion of a human cervical epithelial cell line, ME-180, was tested using the AMP LL-37 for comparison. FA1090 1-81-S2 gonococci at a moi of 5 were incubated with ME-180 cells in 96-well plates with vehicle only, LL-37 (20 μM), or the CPP (100 μM) for 4 h.

[3] = system: End1/E6E7 endocervical cells; experiment: LDH release cytotoxicity, End1/E6E7; format: cell-based, human; design: cytotoxicity, End1/E6E7: unit of the concentration uncertain
Procedure: as §1, §2

ME-180 cervical cells = experiment: LDH release cytotoxicity, ME-180; format: cell-based, human; design: cytotoxicity, ME-180: unit of the concentration uncertain
Procedure: as §1, §2

sheep red blood cells = format: cell-based
Procedure: In vitro assessment of hemolysis is important in determining the potential cytotoxicity of any material or drug that would be in contact with blood. Various protocols for determining hemolytic potential have been reported. A procedure recommended for analysis of the hemolytic potential of drug substances for RBCs using 0.1% Triton as the positive control and a 1 h incubation period was performed.
The CPPs or the vehicle (DMSO and 0.1% Triton X-100), were diluted in PBS. Washed pooled sheep red blood cells (sRBCs; Rockland, R405-0050, 10% v/v) were diluted to 2.1% in PBS. Then 190 μL of the cell suspension was added to the wells of a 96-well plate (Corning CellBIND). Solutions (10 μL) containing the linear or DE or TE cyclized forms of the CPP at 4,000 or 2,000 μM or the DMSO and PBS vehicle were added to wells with sRBCs in triplicate. As a positive control three wells were treated with 10 μL of 2% Triton X-100. The 96 well plates were incubated at 37° C. and 5% CO2 for 1 h, and then centrifugated at 1,000×g for 5 min. Supernatant (100 μL) was transferred to a new plate and then analyzed on the Epoch microtiter plate reader at 405-nm. Results are expressed as % hemolysis, which was calculated according to the following equation: % hemolysis=[(405 nm absorbance (Abs) of RBCs in the peptide solution-405 nm Abs in PBS)/(405 nm Abs in 0.1% Triton X-100-405 nm ABs in PBS]×100. Values of >25% hemolysis were defined as poor, 10-25% medium, and <10% as non-hemolytic according to recommended guidelines.

[4] = system: S. aureus strains 8325-4 and Newman; format: cell-based, Staphylococcus aureus
Procedure: The sensitivity of a Gram positive species was also tested.
N. flavescens strain 4322, N. lactamica strain 1934, and N. subflava strain 52, were available from the collections of the late Dr. Herman Schneider of the Walter Reed Army Institute of Research and of the Neisseria Repository that was formerly housed at UC Berkeley. The 8325-4 and Newman are strains of S. aureus. The latter is β-hemolytic.
S. aureus were grown overnight on Difco GC agar containing 1% BBL Isovitalex Enrichment. Using a sterile cotton swab, bacterial colonies were placed in suspension in GC broth containing 1% BBL Isovitalex. Absorbance of the bacterial suspension at 595 nm was determined to enable dilution to approximately 4×10^6 cells/mL in GC broth. Aliquots of the suspension containing 8×10^5 bacteria along with the CPPs, diluted from stock solutions in DMSO, were added in GC broth containing 1% BBL Isovitalex to make a total volume of 200 μL/well. Bacteria in GC broth with Isovitalex and 1% DMSO were added to vehicle-only control wells. […] After incubation in 5% CO2 at 37° C. for 18 h, plates were analyzed at 600-nm on an Epoch microtiter plate reader. The percentage inhibition of each sample was determined relative to the absorbance of the blank (GC broth only) and the vehicle-only controls. […] If no growth was observed on the plate, then that test concentration was determined to be inhibitory.

[5] = in vivo; cited from earlier work

## LL-37 [reference compound]
[1]; 20 or 40 μM LL-37, 18 h, p<0.001
  levels of cell death compared to the vehicle-only control, THP-1: more than doubled
[2]
  invasion of ME-180 cells: completely inhibited invasion
[3]; LL-37 20 µM, 18 h
  LDH levels, End1/E6E7: more than doubled
[3]; LL-37 20 and 40 mM
  cytotoxicity, End1/E6E7: significant cytotoxicity
ME-180 cervical cells; LL-37 20 µM, 18 h
  LDH levels, ME-180: more than doubled
ME-180 cervical cells; LL-37 20 and 40 mM
  cytotoxicity, ME-180: significant cytotoxicity

## N=C(N)NCCC[C@@H]1NC(=O)CCCCCNC(=O)[C@H](CCCNC(=N)N)NC(=O)[C@H](CCCNC(=N)N)NC(=O)CCCCCNC(=O)[C@H](CCCNC(=N)N)NC(=O)[C@H](CCCNC(=N)N)NC(=O)CCCCCNC(=O)[C@H](CCCNC(=N)N)NC(=O)[C@H](CCCNC(=N)N)NC(=O)CCCCCNC(=O)[C@H](CCCNC(=N)N)NC(=O)[C@@H](N)CSSC[C@@H](C(N)=O)NC1=O [DS cyclized CPP, CRXRRXRRXRRXRC—NH2] (H-CR[Ahx]RR[Ahx]RR[Ahx]RR[Ahx]RC-NH2; disulfide 1-14)
[1]; 100 µM, 18 h
  cell death (LDH), THP-1: significantly increased
[1]; 100 and 200 mM
  percentage of dead cells compared to the Triton X-100 treated controls, THP-1: less than 20%
[3]; 100 and 200 mM
  percentage of dead cells compared to the Triton X-100 treated controls, End1/E6E7: less than 20%
Sheep red blood cells
  hemolysis of sheep RBCs: no hemolysis
ME-180 cervical cells; 100 and 200 mM
  percentage of dead cells compared to the Triton X-100 treated controls, ME-180: less than 20%

## N=C(N)NCCC[C@@H]1NC(=O)CSC[C@@H](C(N)=O)NC(=O)[C@H](CCCNC(=N)N)NC(=O)CCCCCNC(=O)[C@H](CCCNC(=N)N)NC(=O)[C@H](CCCNC(=N)N)NC(=O)CCCCCNC(=O)[C@H](CCCNC(=N)N)NC(=O)[C@H](CCCNC(=N)N)NC(=O)CCCCCNC(=O)[C@H](CCCNC(=N)N)NC(=O)[C@H](CCCNC(=N)N)NC(=O)CCCCCNC1=O [TE cyclized CPP, c [RXRRXRRXRRXRC(S—)]] ({CH2CO}-R[Ahx]RR[Ahx]RR[Ahx]RR[Ahx]RC-NH2; thioether N-13)
[1]; 200 μM, 18 h
  cytotoxicity compared to DS cyclized CPP, THP-1: less cytotoxic compared to the DS cyclized CPP
  cytotoxicity compared to linear CPP, THP-1: more cytotoxic
[1]
  cytotoxicity, THP-1: virtually no cytotoxicity
[3]; 200 μM, 18 h
  cytotoxicity compared to DS cyclized CPP, End1/E6E7: less cytotoxic compared to the DS cyclized CPP
  cytotoxicity compared to linear CPP, End1/E6E7: less cytotoxic compared to the linear CPP
[3]; 100 (unit uncertain)
  cytotoxicity, End1/E6E7: virtually no cytotoxicity
Sheep red blood cells
  hemolysis of sheep RBCs: no hemolysis
ME-180 cervical cells; 200 μM, 18 h
  cytotoxicity compared to DS cyclized CPP, ME-180: less cytotoxic compared to the DS cyclized CPP
ME-180 cervical cells; 100 (unit uncertain)
  cytotoxicity, ME-180: virtually no cytotoxicity
[4]
  MIC for S. aureus: > 100 µM

## N=C(N)NCCC[C@H](NC(=O)CCCCCNC(=O)[C@H](CCCNC(=N)N)NC(=O)[C@H](CCCNC(=N)N)NC(=O)CCCCCNC(=O)[C@H](CCCNC(=N)N)NC(=O)[C@H](CCCNC(=N)N)NC(=O)CCCCCNC(=O)[C@H](CCCNC(=N)N)NC(=O)[C@H](CCCNC(=N)N)NC(=O)CCCCCNC(=O)[C@@H](N)CCCNC(=N)N)C(=O)O [linear CPP, RXRRXRRXRRXR, reference compound] (H-R[Ahx]RR[Ahx]RR[Ahx]RR[Ahx]R-OH)
[1]
  cytotoxicity, THP-1: virtually no cytotoxicity
[1]; 100 or 200 μM, 18 h
  cell death (LDH released), THP-1: not significantly increased
[3]; 100 (unit uncertain)
  cytotoxicity, End1/E6E7: virtually no cytotoxicity
Sheep red blood cells
  hemolysis of sheep RBCs: no hemolysis
ME-180 cervical cells; 100 (unit uncertain)
  cytotoxicity, ME-180: virtually no cytotoxicity

## CC(=O)N[C@H](CSSC[C@H](N)C(=O)O)C(=O)N[C@H](C)C(=O)N[C@H](CCCNC(=N)N)C(=O)N[C@H](CCCNC(=N)N)C(=O)N[C@H](CCCNC(=N)N)C(=O)N[C@H](C)C(=O)N[C@H](CCCNC(=N)N)C(N)=O [etelcalcetide]
[5]
  effective half-life: 72 to 96 h
